In publication PMC5487684, “Safety, Pharmacokinetics, and Antiviral Activity of a Novel HIV Antiviral, ABX464, in Treatment-Naive HIV-Infected Subjects in a Phase 2 Randomized, Controlled Study” (Antimicrobial Agents and Chemotherapy, 2017):

System: CD4 and CD8 cell counts
Assay: CD4 and CD8 cell counts in HIV-infected subjects
Assay type: in vivo, human
Experimental: Plasma samples were analyzed for ABX464 and ABX464-NGlc using validated bioanalytical methods by Atlanbio (Saint Nazaire, France) according to good laboratory practices. Pharmacokinetic parameters were calculated by noncompartmental analysis (NCA), using Phoenix WinNonlin software (Pharsight Corporation) running on a personal computer. On day 1, the following PK parameters were generated: Cmax, the time to Cmax (Tmax), lag time (tlag), elimination rate constant (kel), area under the concentration-time curve (AUC) from time zero to time t (AUC0–t), AUC from time zero to infinity (AUC0–∞), apparent clearance (CL/F), and apparent volume of distribution (V/F). On the other days of PK assessment, only Cmax, Tmax, tlag, kel, and AUC0–t were generated. […] The HIV viral load was analyzed in the prequalified individual local study center laboratories. CD4 and CD8 cell counts were also determined in the local study center laboratories. With respect to the viral load, changes in the log-transformed viral load values between 24 h postdose and predose were calculated on each day, and a comparison between each dose level and pooled placebo data was made. Moreover, the rate of success (defined as a decrease in the viral load value of at least 0.5 log) was evaluated for each treatment (including placebo) and compared between treatments.

FC(F)(F)Oc1ccc(Nc2ccc3cccc(Cl)c3n2)cc1 [ABX464]
CD4 profile (each ABX464 dose): no trend associated with product use or dose
Mean changes in the CD8 cell counts from baseline (human, in vivo): did not show any particular trend
